Experimental data as given in patent US9212164B2, “Pesticidal compositions and processes related thereto” (Dow AgroSciences LLC, priority 2012, dated 2015).

Assays:
Format in all cases: in vivo
[1] = test system: Cabbage Looper (CL) (Trichoplusia ni); experiment: Bioassays on CL, 128-well diet tray assay; conditions: 168 h, 50 μg/cm^2 on artificial diet, second instar larvae, five to seven days, 25° C., read-out: CL Rating (percent mortality)
Experimental: (§1) Certain molecules disclosed in this document were tested against BAW, CEW and CL using procedures described in the following examples. In the reporting of the results, the “BAW & CEW & CL Rating Table” was used (See Table Section).
Bioassays on CL (Trichoplusia ni)
Bioassays on CL were conducted using a 128-well diet tray assay. One to five second instar CL larvae were placed in each well (3 mL) of the diet tray that had been previously filled with 1 mL of artificial diet to which 50 μg/cm^2 of the test compound (dissolved in 50 μL of 90:10 acetone-water mixture) had been applied (to each of eight wells) and then allowed to dry. Trays were covered with a clear self-adhesive cover, and held at 25° C., 14:10 light-dark for five to seven days. Percent mortality was recorded for the larvae in each well; activity in the eight wells was then averaged. The results are indicated in the table entitled “Table 4: Assay Results Part 2” (See Table Section).

[2] = test system: Green Peach Aphid (GPA) (Myzus persicae); experiment: Bioassays on Green Peach Aphid, foliar spray on cabbage seedlings; conditions: 200 ppm spray on cabbage seedlings, graded after three days
Excerpt: GPA is the most significant aphid pest of peach trees, causing decreased growth, shriveling of the leaves, and the death of various tissues. It is also hazardous because it acts as a vector for the transport of plant viruses, such as potato virus Y and potato leafroll virus to members of the nightshade/potato family Solanaceae, and various mosaic viruses to many other food crops. GPA attacks such plants as broccoli, burdock, cabbage, carrot, cauliflower, daikon, eggplant, green beans, lettuce, macadamia, papaya, peppers, sweet potatoes, tomatoes, watercress, and zucchini, among other plants. GPA also attacks many ornamental crops such as carnation, chrysanthemum, flowering white cabbage, poinsettia, and roses. GPA has developed resistance to many pesticides.
Certain molecules disclosed in this document were tested against GPA using procedures described in the following example. In the reporting of the results, the “GPA Rating Table” was used (See Table Section).
Cabbage seedlings grown in 3-inch pots, with 2-3 small (3-5 cm) true leaves, were used as test substrate. The seedlings were infested with 20-50 GPA (wingless adult and nymph stages) one day prior to chemical application. […] Percent Control was measured by using Abbott's correction formula (W. S. Abbott, “A Method of Computing the Effectiveness of an Insecticide” J. Econ. Entomol. 18 (1925), pp. 265-267) as follows. […]

[3] = test system: Beet Armyworm (BAW) (Spodoptera exigua); experiment: Bioassays on BAW, 128-well diet tray assay; conditions: Spodoptera exigua, 168 h; 50 μg/cm^2 on artificial diet, second instar larvae, five to seven days, 25° C.; read-out: BAW Rating (percent mortality)
Experimental: as §1
Bioassays on BAW (Spodoptera exigua)
Bioassays on BAW were conducted using a 128-well diet tray assay. One to five second instar BAW larvae were placed in each well (3 mL) of the diet tray that had been previously filled with 1 mL of artificial diet to which 50 μg/cm^2 of the test compound (dissolved in 50 μL of 90:10 acetone-water mixture) had been applied (to each of eight wells) and then allowed to dry. Trays were covered with a clear self-adhesive cover, and held at 25° C., 14:10 light-dark for five to seven days. Percent mortality was recorded for the larvae in each well; activity in the eight wells was then averaged. The results are indicated in the tables entitled “Table 3: Assay Results Part 1” and “Table 4: Assay Results Part 2” (See Table Section).

| SMILES | mortality at 50 µg/cm2 [1] | GPA Rating (corrected % control) [2] | mortality at 50 µg/cm2 [3] |
| --- | --- | --- | --- |
| O=C(NC1(C(=O)NCC(F)(F)F)CC1)c1ccc(/C=C/C(c2cc(Cl)c(Cl)c(Cl)c2)C(F)(F)F)cc1I (stereo not shown) [FA2] | 50 to 100% | B (More than 0 - Less than 80) | 50 to 100% |
| O=C(NC1(C(=O)NCC(F)(F)F)CCC1)c1ccc(/C=C/C(c2cc(Cl)c(Cl)c(Cl)c2)C(F)(F)F)cc1Br (stereo not shown) [Compound F5] | 50 to 100% | B (More than 0 - Less than 80) | 50 to 100% |
| O=C(NC1(C(=O)NCC(F)(F)F)CC1)c1ccc(/C=C/C(c2cc(Br)cc(Br)c2)C(F)(F)F)cc1C(F)(F)F (stereo not shown) [Compound P1198] | 50 to 100% |  | 50 to 100% |
| CC(F)(F)C(/C=C/c1ccc(C(=O)NC2(C(=O)NCC(F)(F)F)CC2)c(C(F)(F)F)c1)c1ccc(Cl)c(Cl)c1 (stereo not shown) [FA9] | 50 to 100% |  | 50 to 100% |
| CCN(Cc1ccccc1)C(=O)C1(NC(=O)c2ccc(/C=C/C(c3cc(Cl)c(Cl)c(Cl)c3)C(F)(F)F)cc2Br)CC1 (stereo not shown) [FA45] | 50 to 100% |  | 50 to 100% |
| O=C(NC1(C(=O)NCCF)CC1)c1ccc(/C=C/C(c2cc(Br)cc(Br)c2)C(F)(F)F)cc1C(F)(F)F (stereo not shown) [Compound P1200] | 50 to 100% |  | 50 to 100% |
| CCc1cc(Cl)cc(C(/C=C/c2ccc(C(=O)NC3(C(=O)NCC(F)(F)F)CC3)c(Br)c2)C(F)(F)F)c1 (stereo not shown) [FA13] | 50 to 100% |  | 50 to 100% |
| O=C(NC1(C(=O)NCC(F)(F)F)CC1)c1ccc(/C=C/C(c2cc(Br)c(Cl)c(Br)c2)C(F)(F)F)cc1C(F)(F)F (stereo not shown) [FA7] | 50 to 100% |  | 50 to 100% |
| CCNC(=O)C1(NC(=O)c2ccc(/C=C/C(c3cc(Cl)c(Cl)c(Cl)c3)C(F)(F)F)cc2C(F)(F)F)CC1 (stereo not shown) [Compound P1025] | 50 to 100% |  | 50 to 100% |
| O=C(NC1(C(=O)NCC(F)(F)F)CC1)c1ccc(/C=C/C(c2cc(Cl)cc(Br)c2)C(F)(F)F)cc1C(F)(F)F (stereo not shown) [Compound P380] | 50 to 100% |  | 50 to 100% |
| O=C(NC1(C(=O)NCC(F)(F)F)CC1)c1ccc(/C=C/C(c2ccc(Cl)c([N+](=O)[O-])c2)C(F)(F)F)cc1C(F)(F)F (stereo not shown) [Compound P470] | 50 to 100% |  | 50 to 100% |
| COCCCNC(=O)C1(NC(=O)c2ccc(/C=C/C(c3cc(Cl)c(Cl)c(Cl)c3)C(F)(F)F)cc2Br)CC1 (stereo not shown) [FA18] | 50 to 100% |  | 50 to 100% |
| O=C(NC1(C(=O)NCCF)CC1)c1ccc(/C=C/C(c2cc(Cl)c(Cl)c(Cl)c2)C(F)(F)F)cc1C(F)(F)F (stereo not shown) [Compound P1020] | 50 to 100% |  | 50 to 100% |
| Cc1cc(C(/C=C/c2ccc(C(=O)NC3(C(=O)NCC(F)(F)F)CC3)c(C(F)(F)F)c2)C(F)(F)F)cc(C)c1F (stereo not shown) [Compound P335] | 50 to 100% |  | 50 to 100% |
| O=C(NC1(C(=O)NCC2CCOC2)CC1)c1ccc(/C=C/C(c2cc(Cl)c(Cl)c(Cl)c2)C(F)(F)F)cc1Br (stereo not shown) [FA21] | 50 to 100% |  | 50 to 100% |
| O=C(NC1(C(=O)NCC(F)(F)F)CC1)c1ccc(/C=C/[C@H](c2cc(Cl)c(Cl)c(Cl)c2)C(F)(F)F)cc1C(F)(F)F (single isomer, unassigned) [Compound F8A] | 50 to 100% |  | 50 to 100% |
| CON(CC(F)(F)F)C(=O)C1(NC(=O)c2ccc(/C=C/C(c3cc(Cl)c(Cl)c(Cl)c3)C(F)(F)F)cc2C(F)(F)F)CC1 (stereo not shown) [FA49, (E)-N-(1-(Methoxy(2,2,2-trifluoroethyl)carbamoyl)cyclopropyl)-4-(4,4,4-trifluoro-3-(3,4,5-trichlorophenyl)but-1-en-1-yl)-2-(trifluoromethyl)benzamide] | 50 to 100% |  | 50 to 100% |
| N#CC1(NC(=O)c2ccc(/C=C/C(c3cc(Cl)c(Cl)c(Cl)c3)C(F)(F)F)cc2Br)CC1 (stereo not shown) [Compound F7, (E)-2-Bromo-N-(1-cyanocyclopropyl)-4-(4,4,4-trifluoro-3-(3,4,5-trichlorophenyl)but-1-en-1-yl)benzamide] | 50 to 100% |  | 50 to 100% |
| Cc1cc(C(/C=C/c2ccc(C(=O)NC3(C(=O)NCC(F)(F)F)CC3)c(Br)c2)C(F)(F)F)ccc1Cl (stereo not shown) [Compound P243] | 50 to 100% |  | 50 to 100% |
| O=C(NC1(C(=O)NCC(F)(F)F)CC1)c1ccc(/C=C/C(c2cc(Cl)c(Cl)c(Cl)c2)C(F)(F)F)cc1C(F)(F)F (stereo not shown) [Compound F8] | 50 to 100% |  | 50 to 100% |
| Cc1cc(/C=C/C(c2cc(Cl)c(Cl)c(Cl)c2)C(F)(F)F)ccc1C(=O)NC1(C(=O)NCC(F)(F)F)CC1 (stereo not shown) [Compound F2] | 50 to 100% |  | 50 to 100% |
| O=C(NC1(C(=O)NCC(F)(F)F)CC1)c1ccc(/C=C/C(c2cc(Cl)cc(Cl)c2)C(F)(F)C(F)(F)F)cc1C(F)(F)F (stereo not shown) [Compound P1045] | 50 to 100% |  | 50 to 100% |
| O=C(NC1(C(=O)NCC(F)(F)F)CC1)c1ccc(/C=C/C(c2cc(Cl)cc(Cl)c2)C(F)(F)C(F)(F)F)cc1Br (stereo not shown) [Compound P1043] | 50 to 100% |  | 50 to 100% |
| CCNC(=O)C1(NC(=O)c2ccc(/C=C/C(c3cc(Cl)c(Cl)c(Cl)c3)C(F)(F)F)cc2Br)CC1 (stereo not shown) [Compound P1023] | 50 to 100% |  | 50 to 100% |
| O=C(NC1(C(=O)NC2CCCCC2)CC1)c1ccc(/C=C/C(c2cc(Cl)c(Cl)c(Cl)c2)C(F)(F)F)cc1Br (stereo not shown) [FA22] | 50 to 100% |  | 0% |
| O=C(NC1(C(=O)NCC(F)(F)F)CC1)c1ccc(/C=C/C(c2cc(Cl)c(Cl)cc2Cl)C(F)(F)F)cc1C(F)(F)F (stereo not shown) [Compound P110] | 50 to 100% |  | 50 to 100% |
| O=C(NC1(C(=O)NCCn2ccnc2)CC1)c1ccc(/C=C/C(c2cc(Cl)c(Cl)c(Cl)c2)C(F)(F)F)cc1Br (stereo not shown) [FA24] | 0% |  | 0 to 50% |
| O=C(NC1(C(=O)NCC(F)(F)F)CC1)c1ccc(/C=C/C(c2cc(Cl)c(Br)c(Cl)c2)C(F)(F)F)cc1Br (stereo not shown) [FA5] | 50 to 100% |  | 50 to 100% |
